Data: patent US4689331A, “Substituted 2-pyridinyl benzimidazoles, and their use for inhibiting gastric acid secretion” (priority 1984, dated 1987)

Columns and labels:
[1] = target: T1, gastric H^+,K^+ -ATPase (Sus scrofa, UniProt P19156); assay: In vitro inhibition of gastric H+,K+-ATPase; type: biochemical; conditions: hog gastric membrane, pH 7.4, 30 min incubation, negative log of concentration (M) giving 50% inhibition
T1 construct: from tissue; host or cells: hog stomach, purified membrane fraction (GI fraction of Saccomani et al. 1977)
Procedure: I. In vitro inhibition of gastric H^+,K^+ -ATPase
Hog gastric H^+,K^+ -ATPase was purified according to Saccomani et al., Biochim. Biophys. Acta 465, 311-330, 1977. 10 μg of membrane protein (GI-fraction in the reference listed above) was incubated with 2 mmol/l of piperazine-N,N'bis-(2-ethane sulfonic acid) buffer pH 7.4 and the test compound in concentrations 10^-7 -10^-4 M in a final volume of 1 ml. (The test compound was dissolved in methanol. Aliquots of these stock solutions were diluted to a final methanol concentration below 1%, which on its own had no effect on the enzyme activities.) After 30 minutes of incubation, the remaining H^+,K^+ -ATPase activity was determined, according to Wallmark et al., Biochim. Biophys. Acta, 728, 31-38, 1983. A dose-response curve was constructed and the concentration at half-maximal inhibition (IC50) could be determined.
pIC50 is the negative logarithm of the concentration (in M) of the test compound giving 50% inhibition.

[2] = tested on: ethanol-induced gastric lesions; assay: In vivo cytoprotective effect: effect on ethanol-induced gastric lesions in the rat; parameters: species or system rat (female Spraque-Dawley); conditions: oral, 30 min before 1 ml absolute ethanol, dose giving 50% reduction of total lesion length vs control (11.0 cm); for ED50: Rattus norvegicus, read-out: III Rat Cytoprot. ED50
Procedure: III. In vivo cytoprotective effect: Effect on ethanol-induced gastric lesions in the rat
Two groups of female Spraque-Dawley rats (190-220 g) were used, one for the test compound and one for the control experiment. Food, but not water, was removed 24 h before the experiments.
The animals in the test group were treated orally with the test compound dissolved in 10% ethanol in 0.5% Methocel® immediately before use and the animals in the control group were given the vehicle only in a dose of 2.5 ml/kg.
Thirty minutes later the rats were given orally 1 ml of absolute ethanol (a standard agent for inducing gastric mucosal lesions).
Sixty minutes later the rats were killed by carbon dioxide asphyxiation, their stomachs dissected out and the gastric mucosae were examined for the presence of necrotic lesions. The total lengths of the lesions in the stomachs were measured in the test group and in the control group, in both cases treated thirty minutes before with ethanol.
The ED50 -value represents the dose of the compound giving 50% reduction of the total lengths of lesions compared to the total lengths of lesions of the control experiment (11.0 cm).

[3] = tested on: gastric acid secretion; assay: Inhibiting effect in vivo on gastric acid secretion in conscious dog; conditions: conscious chronic gastric fistula dog, oral by stomach tube, histamine-induced secretion, 1 h after dosing, peak inhibitory effect
Procedure: II. Inhibiting effect in vivo on gastric acid secretion in conscious dog
Chronic gastric fistula dogs were used. These dogs have been surgically provided with a gastric cannula in the stomach and a duodenal fistula used for direct intraduodenal administration of test compounds. Following a 4 week's recovery period after surgery, tests were performed once a week on each dog. Food and water were withdrawn 18 hours before each test.
The test compound dissolved in 5% ethanol in 0.5% Methocel® (90 HG, 15.000, Dow Chem Corp.) was administered orally by using a stomach tube. After 1 hour gastric acid secretion was induced by continuous infusion of histamine at individual doses (400-600 nmol/kg, h), resulting in approx. 90% of maximal secretion of gastric acid. The gastric juice was collected by free flow from the gastric cannula in consecutive 30 minutes samples for 2 hours. The samples were titrated to pH 7.0 with 0.1M NaOH using a Radiometer automatic titrator and the acid output was calculated. The percent inhibition of acid secretion was calculated by comparing in each dog the acid output in the test to the acid output in control tests when only the vehicle was given. The peak inhibitory effect for each compound was determined.

T1 sequence (P19156 2-1034 limits assumed): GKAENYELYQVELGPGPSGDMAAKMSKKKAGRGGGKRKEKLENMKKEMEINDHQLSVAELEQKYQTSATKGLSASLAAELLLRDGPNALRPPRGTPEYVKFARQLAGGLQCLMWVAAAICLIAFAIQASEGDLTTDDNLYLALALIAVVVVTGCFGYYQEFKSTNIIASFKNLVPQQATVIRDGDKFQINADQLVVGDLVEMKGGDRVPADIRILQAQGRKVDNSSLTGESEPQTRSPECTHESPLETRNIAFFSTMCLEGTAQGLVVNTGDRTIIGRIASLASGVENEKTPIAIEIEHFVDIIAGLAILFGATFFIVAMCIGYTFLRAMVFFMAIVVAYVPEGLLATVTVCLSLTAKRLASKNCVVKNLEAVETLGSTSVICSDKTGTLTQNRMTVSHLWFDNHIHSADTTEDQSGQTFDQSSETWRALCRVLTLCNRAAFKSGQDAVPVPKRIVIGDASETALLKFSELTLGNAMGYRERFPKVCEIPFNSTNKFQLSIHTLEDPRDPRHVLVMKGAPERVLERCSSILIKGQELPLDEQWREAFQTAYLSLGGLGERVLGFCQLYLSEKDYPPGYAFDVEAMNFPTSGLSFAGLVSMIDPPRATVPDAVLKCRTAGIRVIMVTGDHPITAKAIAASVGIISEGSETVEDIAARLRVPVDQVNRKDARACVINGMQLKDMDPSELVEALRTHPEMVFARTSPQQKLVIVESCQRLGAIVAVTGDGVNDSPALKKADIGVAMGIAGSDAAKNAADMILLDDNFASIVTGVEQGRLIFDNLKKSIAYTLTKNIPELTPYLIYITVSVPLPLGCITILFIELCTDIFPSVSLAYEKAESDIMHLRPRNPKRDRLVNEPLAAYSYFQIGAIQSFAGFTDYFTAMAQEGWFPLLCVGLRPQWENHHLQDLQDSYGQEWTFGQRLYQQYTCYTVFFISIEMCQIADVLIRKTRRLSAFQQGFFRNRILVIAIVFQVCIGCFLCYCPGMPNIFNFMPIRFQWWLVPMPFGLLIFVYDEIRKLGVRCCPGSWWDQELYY
T1 sequence (P18434 whole entry partner): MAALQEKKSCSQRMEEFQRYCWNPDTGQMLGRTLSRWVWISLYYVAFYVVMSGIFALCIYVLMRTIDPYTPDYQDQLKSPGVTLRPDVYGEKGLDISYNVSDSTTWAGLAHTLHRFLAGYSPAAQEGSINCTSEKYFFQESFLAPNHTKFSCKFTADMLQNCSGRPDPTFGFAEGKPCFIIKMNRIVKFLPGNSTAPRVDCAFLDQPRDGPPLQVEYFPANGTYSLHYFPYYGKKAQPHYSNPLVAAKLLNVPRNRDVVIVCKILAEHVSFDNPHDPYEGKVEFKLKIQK

Row | IC50 ([1]; read-out: I Enzyme pIC50 (converted)) [M] | I Enzyme pIC50 [1] | Structure (SMILES) | ED50 [2] [µmol/kg] | ED50 ([3]; Canis lupus familiaris, read-out: II Dog Gast. acid secr. inhib. ED50) [µmol/kg] | II Dog Gast. acid secr. inhib. ED50 [3] [µmol/kg] | III Rat Cytoprot. ED50 [2] [µmol/kg]
1 | 3.16e-05 | – | COc1ccc2[n-]c(-[n+]3cc(C)c(OC)c(C)c3CSSCC(=O)O)nc2c1 [Example 7] | 30 | – | – | –
2 | – | – | COc1c(C)c[n+](-c2nc3ccccc3[n-]2)c(CSC#N)c1C [Example 14] | 20 | 9 | – | –
3 | – | 5.0 | COc1ccc2[nH]c(-[n+]3cc(C)c(OC)c(C)c3CSSCCO)nc2c1.[O-][Cl+3]([O-])([O-])[O-] [Example 1, 3,5-dimethyl-4-methoxy-2-[(2-hydroxyethyl)dithiomethyl]-1-(5-methoxy-2-benzimidazolyl)-pyridiniumperchlorate] | – | – | 6 | 15
